Measurements from patent US20230146675A1, “PYRIMIDO[5,4-d]PYRIMIDINE DERIVATIVES AS ENT INHIBITORS FOR THE TREATMENT OF CANCERS, AND COMBINATION THEREOF WITH ADENOSINE RECEPTOR ANTAGONISTS” (ITEOS BELGIUM SA, priority 2020, published 2023).

Biological target: T1, human ENT1 (Homo sapiens, UniProt Q99808)
T1 sequence (Q99808 1-456): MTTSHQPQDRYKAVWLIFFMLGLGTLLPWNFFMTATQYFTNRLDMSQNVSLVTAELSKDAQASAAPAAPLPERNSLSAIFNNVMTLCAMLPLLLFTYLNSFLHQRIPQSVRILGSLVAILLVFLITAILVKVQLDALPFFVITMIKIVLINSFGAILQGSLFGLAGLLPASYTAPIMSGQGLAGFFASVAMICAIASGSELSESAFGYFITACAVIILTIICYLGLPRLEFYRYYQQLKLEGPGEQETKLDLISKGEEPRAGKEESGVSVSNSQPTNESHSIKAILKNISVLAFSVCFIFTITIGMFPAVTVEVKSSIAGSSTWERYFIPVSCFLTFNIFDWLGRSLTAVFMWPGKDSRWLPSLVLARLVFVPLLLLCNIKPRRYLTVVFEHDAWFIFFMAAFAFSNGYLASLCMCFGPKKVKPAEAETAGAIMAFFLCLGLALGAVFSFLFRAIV
Test: ENT1 binding assay (competition with Sahenta-DY647 on JAR cells)
Set-up: JAR cells expressing ENT1 were bought from ATCC; host or cells: JAR cells
Conditions: binned IC50
Procedure: Purpose. […] By measuring the fluorescence at the end of the assay we could assess the binding potency of the compounds of the present invention.
JAR cells were resuspended in the described buffer. Compounds of the present invention and Sahenta-DY647 were diluted 200× in the described buffer.
The total volume of the reaction was 100 μL (50 μL of cells, 25 μL of the compounds of the present invention and 25 μL of Sahenta-DY647) in a 96 well plate, U-bottom (Greiner®, #650-180). The plates were washed 2× by centrifugation (4 min, 400 rcf at 4° C.) in the same buffer.

| IC50 [nM] | SMILES |
| --- | --- |
| < 100 | COCCN(CCOC)c1nc(N2CCN(C)C(=O)C2)c2nc(N(CCOC)CCOC)nc(N3CCC(F)(F)CC3)c2n1 [Compound 206, 4-(2,6-bis(bis(2-methoxyethyl)amino)-8-(4,4-difluoropiperidin-1-yl)pyrimido[5,4-d]pyrimidin-4-yl)-1-methylpiperazin-2-one] |
| 100 to 500 | COCCN(CCOC)c1nc(N2CCN(c3ncn(C)n3)CC2)c2nc(N(CCOC)CCOC)nc(N(C)Cc3cccc(F)c3)c2n1 [Compound 241, N4-(3-fluorobenzyl)-N2,N2,N6,N6-tetrakis(2-methoxyethyl)-N4-methyl-8-(4-(1-methyl-1H-1,2,4-triazol-3-yl)piperazin-1-yl)pyrimido[5,4-d]pyrimidine-2,4,6-triamine] |
| 500 to 1000 | COCCCNc1nc(N(CCOC)CCOC)nc2c(N3CCC(OC)CC3)nc(N(CCOC)CCOC)nc12 [Compound 51, N2,N2,N6,N6-tetrakis(2-methoxyethyl)-8-(4-methoxypiperidin-1-yl)-N4-(3-methoxypropyl)pyrimido[5,4-d]pyrimidine-2,4,6-triamine] |
| 100 to 500 | COCCN(CCOC)c1nc(N2CCN(C(C)=O)CC2)c2nc(N(CCOC)CCOC)nc(N3CCC(OC)CC3)c2n1 [Compound 74, 1-(4-(2,6-bis(bis(2-methoxyethyl)amino)-8-(4-methoxypiperidin-1-yl)pyrimido[5,4-d]pyrimidin-4-yl)piperazin-1-yl)ethanone] |
| 500 to 1000 | COCCN(CCOC)c1nc(N2CCC(OC)CC2)c2nc(NCCCn3ccnc3)nc(N3CCC(OC)CC3)c2n1 [Compound 134, N2-(3-(1H-imidazol-1-yl)propyl)-N6,N6-bis(2-methoxyethyl)-4,8-bis(4-methoxypiperidin-1-yl)pyrimido[5,4-d]pyrimidine-2,6-diamine] |
| 100 to 500 | COCCN(CCOC)c1nc(N2CCN(c3cccnc3)CC2)c2nc(N(CCOC)CCOC)nc(N3CCC(OC)CC3)c2n1 [Compound 118, N2,N2,N6,N6-tetrakis(2-methoxyethyl)-4-(4-methoxypiperidin-1-yl)-8-(4-(pyridin-3-yl)piperazin-1-yl)pyrimido[5,4-d]pyrimidine-2,6-diamine] |
| < 100 | COCCN(CCOC)c1nc(N2CCc3cnn(C)c3C2)c2nc(N(CCOC)CCOC)nc(N3CCN(C)C(=O)C3)c2n1 [Compound 266, 4-(2,6-bis(bis(2-methoxyethyl)amino)-8-(1-methyl-1,4,5,7-tetrahydro-6H-pyrazolo[3,4-c]pyridin-6-yl)pyrimido[5,4-d]pyrimidin-4-yl)-1-methylpiperazin-2-one] |
| 500 to 1000 | COCCN(CCOC)c1nc(N2CCC(OC)CC2)c2nc(N(CCOC)CCOC)nc(NCc3cscn3)c2n1 [Compound 66, N2,N2,N6,N6-tetrakis(2-methoxyethyl)-8-(4-methoxypiperidin-1-yl)-N4-(thiazol-4-ylmethyl)pyrimido[5,4-d]pyrimidine-2,4,6-triamine] |
| < 100 | COCCN(CCOC)c1nc(N2CCn3cccc3C2)c2nc(N(CCOC)CCOC)nc(N3CCN(C)C(=O)C3)c2n1 [Compound 258, 4-(2,6-bis(bis(2-methoxyethyl)amino)-8-(3,4-dihydropyrrolo[1,2-a]pyrazin-2(1H)-yl)pyrimido[5,4-d]pyrimidin-4-yl)-1-methylpiperazin-2-one] |
| 100 to 500 | COCCN(CCOC)c1nc(N2CCC(OC)CC2)c2nc(N(CCOC)CCOC)nc(NCCCCC#N)c2n1 [Compound 179, 5-((2,6-bis(bis(2-methoxyethyl)amino)-8-(4-methoxypiperidin-1-yl)pyrimido[5,4-d]pyrimidin-4-yl)amino)pentanenitrile] |
| < 100 | COCCN(CCOC)c1nc(N2CCN(c3ncn(C)n3)CC2)c2nc(N(CCOC)CCOC)nc(NCc3cccc(Cl)c3)c2n1 [Compound 221, N4-(3-chlorobenzyl)-N2,N2,N6,N6-tetrakis(2-methoxyethyl)-8-(4-(1-methyl-1H-1,2,4-triazol-3-yl)piperazin-1-yl)pyrimido[5,4-d]pyrimidine-2,4,6-triamine] |
| 100 to 500 | COCCN(CCOC)c1nc(N2CCC(OC)CC2)c2nc(N(CCO)CCO)nc(N3CCN(C)C(=O)C3)c2n1 [Compound 270, 4-(2-(bis(2-hydroxyethyl)amino)-6-(bis(2-methoxyethyl)amino)-8-(4-methoxypiperidin-1-yl)pyrimido[5,4-d]pyrimidin-4-yl)-1-methylpiperazin-2-one] |
| 500 to 1000 | COCCN(CCOC)c1nc(N2CCN(C)C(=O)C2)c2nc(N3CCN(C(=O)OC)CC3)nc(N3CCC(OC)CC3)c2n1 [Compound 284, methyl 4-(6-(bis(2-methoxyethyl)amino)-4-(4-methoxypiperidin-1-yl)-8-(4-methyl-3-oxopiperazin-1-yl)pyrimido[5,4-d]pyrimidin-2-yl)piperazine-1-carboxylate] |
| 500 to 1000 | COCCN(CCOC)c1nc(N2CCC(OC)CC2)c2nc(N(CCO)CCO)nc(N3CCN(C4CC4)C(=O)C3)c2n1 [Compound 315, 4-(2-(bis(2-hydroxyethyl)amino)-6-(bis(2-methoxyethyl)amino)-8-(4-methoxypiperidin-1-yl)pyrimido[5,4-d]pyrimidin-4-yl)-1-cyclopropylpiperazin-2-one] |
| 500 to 1000 | COCCN(CCOC)c1nc(N2CCS(=O)(=O)CC2)c2nc(N(CCOC)CCOC)nc(N3CCS(=O)(=O)CC3)c2n1 [Compound 37, 4,4′-(2,6-bis(bis(2-methoxyethyl)amino)pyrimido[5,4-d]pyrimidine-4,8-diyl)bis(thiomorpholine 1,1-dioxide)] |
| 500 to 1000 | COCCN(CCOC)c1nc(N2CCC(S(C)(=O)=O)CC2)c2nc(N(CCOC)CCOC)nc(N3CCC(OC)CC3)c2n1 [Compound 78, N2,N2,N6,N6-tetrakis(2-methoxyethyl)-4-(4-methoxypiperidin-1-yl)-8-(4-(methylsulfonyl)piperidin-1-yl)pyrimido[5,4-d]pyrimidine-2,6-diamine] |
| 500 to 1000 | COCCN(CCOC)c1nc(N2CCC(OC)CC2)c2nc(N(CCOC)CCOC)nc(NCc3nccs3)c2n1 [Compound 58, N2,N2,N6,N6-tetrakis(2-methoxyethyl)-8-(4-methoxypiperidin-1-yl)-N4-(thiazol-2-ylmethyl)pyrimido[5,4-d]pyrimidine-2,4,6-triamine] |
| < 100 | COCCN(CCOC)c1nc(N2CCn3cncc3C2)c2nc(N(CCOC)CCOC)nc(N3CCC(OC)CC3)c2n1 [Compound 114, 4-(5,6-dihydroimidazo[1,5-a]pyrazin-7(8H)-yl)-N2,N2,N6,N6-tetrakis(2-methoxyethyl)-8-(4-methoxypiperidin-1-yl)pyrimido[5,4-d]pyrimidine-2,6-diamine] |
| < 100 | COCCN(CCOC)c1nc(N2CCc3oc(C)nc3C2)c2nc(N(CCOC)CCOC)nc(N3CCN(C)C(=O)C3)c2n1 [Compound 256, 4-(2,6-bis(bis(2-methoxyethyl)amino)-8-(2-methyl-6,7-dihydrooxazolo[4,5-c]pyridin-5(4H)-yl)pyrimido[5,4-d]pyrimidin-4-yl)-1-methylpiperazin-2-one] |
| 100 to 500 | COCCN(CCOC)c1nc(N2CCC(OC)CC2)c2nc(N3CCN(c4ncccc4N)CC3)nc(N3CCN(C)C(=O)C3)c2n1 [Compound 293, 4-(2-(4-(3-aminopyridin-2-yl)piperazin-1-yl)-6-(bis(2-methoxyethyl)amino)-8-(4-methoxypiperidin-1-yl)pyrimido[5,4-d]pyrimidin-4-yl)-1-methylpiperazin-2-one] |
